Results published in patent US20020147158A1, “Composition and method for preventing and treating sinusoidal obstruction syndrome and radiation-induced liver disease” (University of Southern California, priority 2001, published 2002).
Entries after “also recorded” stand apart in the source; their conditions may differ.

Legend:
MMPs = settings: stated in words, no test described; cited from earlier work
[1] = test system: monocrotaline-induced hepatic venoocclusive disease; assay: monocrotaline-induced rat model of SOS (hepatic venoocclusive disease), blinded histologic scoring; format: in vivo; settings: for prevention of SOS (overall histologic score, FIG. 1): monocrotaline model
Excerpt: This FIGURE describes the effect of MMP inhibition in the in monocrotaline-induced model of SOS. Injury is rated as absent (−) or as one, two or three plus. The overall score reflects central vein (CV) endothelial damage, hemorrhage and coagulative necrosis: 2-3 points is considered mild SOS, 4-6 points is considered moderate SOS and 7-9 points is severe disease. The MMP2/MMP9 inhibitor used is 2-[(4-biphenylylsulfonyl)amino]-3-phenyl-propionic acid.
The present invention provides methods for using matrix metalloproteinase inhibitors to prevent and treat chemotherapy-induced liver disease, such as SOS and radiation-induced liver disease. These studies were done in an in vivo model of monocrotaline-induced hepatic venoocclusive disease which closely resembles the human disease.^8 Two commercially available MMP inhibitors were tested in the in vivo rat model of hepatic venoocclusive disease: doxycycline and the MMP-2/MMP-9 inhibitor, 2-[(4-biphenylsulfonyl)amino]-3-phenyl-propionic acid. Doxycycline, 15 mg/kg was given twice daily by gavage prior to onset of the disease and continued until the time of sacrifice. 2-[(4-biphenylsulfonyl)amino]-3-phenyl-propionic acid, 200 μg/hour was infused into the portal circulation until the time of sacrifice. A systematic scoring system was devised to review all the changes associated with hepatic venoocclusive disease.
The rats that were treated with the MMP inhibitors were sacrificed on day 4, which is the time-point with most severe disease in this model of hepatic venoocclusive disease when no therapeutic interventions are used. […] Both of these MMP inhibitors prevent hepatic venoocclusive disease in a dose-dependent manner, these showing that this is a class effect of MMP inhibitors and characteristic of MMP inhibition.

Compound	inhibitory effect on MMPs (MMPs)	prevention of SOS (overall histologic score, FIG. 1) ([1]; day 4)	hepatic venoocclusive disease on blinded pathology scoring ([1]; day 4, 200 μg/hour infused intraportally by osmotic minipump)	protection from liver changes at lower doses ([1]; doses lower than 15 mg/kg twice daily (doxycycline) or 200 μg/hour (BPP))	prevention of SOS (overall histologic score, FIG. 1) ([1]; day 4, listed as 2-[(4-biphenylylsulfonyl)amino]-3-phenyl-propionic acid)	prevention of SOS (overall histologic score, FIG. 1) ([1]; day 4, listed as BPP)
isochlorotetracycline	weak MMP inhibitors; also recorded: little inhibitory effect on MMPs	do not prevent SOS; also recorded: minimal protective effect	–	–	–	–
O=C(O)C(Cc1ccccc1)NS(=O)(=O)c1ccc(-c2ccccc2)cc1 (centres unmarked) [2-[(4-biphenylsulfonyl)amino]-3-phenyl-propionic acid]	–	–	absence of hepatic venoocclusive disease	partial protection	completely prevented	completely inhibits SOS
Cc1c2c(c(O)c3c(O)cccc13)C(=O)[C@]1(O)C(=O)C(C(N)=O)=C(O)[C@@H](N(C)C)[C@@H]1C2 [anhydrotetracycline]	weak MMP inhibitors; also recorded: little inhibitory effect on MMPs	do not prevent SOS; also recorded: minimal protective effect	–	–	–	–
